From PMC6504579 (Journal of immunology (Baltimore, Md. : 1950), 2019)
Read-outs that look alike come from different tables or passages of the source.

Format: in vitro ADME, human
Settings: for ATK9 epitope produced (share of degradation products): representative donor; for degradation rate of substrate in CD3/CD28-stimulated vs non-stimulated extracts: paired CD4 T cell cytosolic extracts, 37 °C, pH 7.4, LC-MS/MS; for time of peak production of N-extended TW10 precursors: sampled at 2, 5 and 8 h
[1] = CD3/CD28-stimulated extract, 120 min
[2] = CD3/CD28-stimulated extract, 180 min
[3] = non-stimulated extract, 120 min
[4] = non-stimulated extract, 180 min

SMILES	antitopes produced (share of degradation products) [1] [%]	ATK9 epitope produced (share of degradation products) [1] [%]	antitopes produced (share of degradation products) [2] [%]	ATK9 epitope produced (share of degradation products) [2] [%]	antitopes produced (share of degradation products) [3] [%]	ATK9 epitope produced (share of degradation products) [3] [%]	antitopes produced (share of degradation products) [4] [%]	ATK9 epitope produced (share of degradation products) [4] [%]	degradation rate of substrate in CD3/CD28-stimulated vs non-stimulated extracts	time of peak production of N-extended TW10 precursors (activated extracts) [h]	time of peak production of N-extended TW10 precursors (extracts from resting CD4 T cells) [h]	detection of optimal TW10 at 2, 5 and 8 hours (paired resting and activated extracts)
CC[C@H](C)[C@H](NC(=O)[C@H](C)NC(=O)[C@@H]1CCCN1C(=O)[C@H](CO)NC(=O)CNC(=O)[C@H](CCCCN)NC(=O)[C@@H](N)Cc1c[nH]c2ccccc12)C(=O)N[C@@H](Cc1ccccc1)C(=O)N[C@@H](CCC(N)=O)C(=O)N[C@@H](CO)C(=O)N[C@@H](CO)C(=O)N[C@@H](CCSC)C(=O)N[C@H](C(=O)N[C@@H](CCCCN)C(=O)N[C@H](C(=O)N[C@@H](CC(C)C)C(=O)O)[C@@H](C)CC)[C@@H](C)O [5-ATK9–2]	66.43	0.49	79.38	0.54	48.1	1.05	57.7	1.06	degraded faster			
CC[C@H](C)[C@H](NC(=O)[C@H](CCC(N)=O)NC(=O)[C@H](CCC(=O)O)NC(=O)[C@H](CCC(N)=O)NC(=O)[C@H](CC(C)C)NC(=O)[C@@H](NC(=O)[C@H](CO)NC(=O)[C@@H](NC(=O)[C@@H](NC(=O)CNC(=O)[C@H](C)NC(=O)[C@@H](NC(=O)[C@@H](N)CC(=O)O)[C@@H](C)CC)[C@@H](C)O)[C@@H](C)O)[C@@H](C)O)C(=O)NCC(=O)N[C@@H](Cc1c[nH]c2ccccc12)C(=O)N[C@@H](CCSC)C(=O)N[C@H](C(=O)N[C@@H](CC(N)=O)C(=O)O)[C@@H](C)O [5-TW10–3]									faster degradation rates	2	5	only in activated extracts
